Source: patent US20210198277A1, “AMINE-SUBSTITUTED ARYL OR HETEROARYL COMPOUNDS” (Epizyme, Inc., priority 2016, published 2021)

target: T1, EHMT2 (Homo sapiens, UniProt Q96KQ7); experiment: MDA-MB-231 H3K9me2 in-cell Western assay (EHMT2 ICW); format: cell-based; conditions: Table III; MDA-MB-231 H3K9me2 in-cell Western; read-out: EHMT2 ICW (IC50 μM)
T1 construct: host or cells: MDA-MB-231
T1 sequence (Q96KQ7 1-1210): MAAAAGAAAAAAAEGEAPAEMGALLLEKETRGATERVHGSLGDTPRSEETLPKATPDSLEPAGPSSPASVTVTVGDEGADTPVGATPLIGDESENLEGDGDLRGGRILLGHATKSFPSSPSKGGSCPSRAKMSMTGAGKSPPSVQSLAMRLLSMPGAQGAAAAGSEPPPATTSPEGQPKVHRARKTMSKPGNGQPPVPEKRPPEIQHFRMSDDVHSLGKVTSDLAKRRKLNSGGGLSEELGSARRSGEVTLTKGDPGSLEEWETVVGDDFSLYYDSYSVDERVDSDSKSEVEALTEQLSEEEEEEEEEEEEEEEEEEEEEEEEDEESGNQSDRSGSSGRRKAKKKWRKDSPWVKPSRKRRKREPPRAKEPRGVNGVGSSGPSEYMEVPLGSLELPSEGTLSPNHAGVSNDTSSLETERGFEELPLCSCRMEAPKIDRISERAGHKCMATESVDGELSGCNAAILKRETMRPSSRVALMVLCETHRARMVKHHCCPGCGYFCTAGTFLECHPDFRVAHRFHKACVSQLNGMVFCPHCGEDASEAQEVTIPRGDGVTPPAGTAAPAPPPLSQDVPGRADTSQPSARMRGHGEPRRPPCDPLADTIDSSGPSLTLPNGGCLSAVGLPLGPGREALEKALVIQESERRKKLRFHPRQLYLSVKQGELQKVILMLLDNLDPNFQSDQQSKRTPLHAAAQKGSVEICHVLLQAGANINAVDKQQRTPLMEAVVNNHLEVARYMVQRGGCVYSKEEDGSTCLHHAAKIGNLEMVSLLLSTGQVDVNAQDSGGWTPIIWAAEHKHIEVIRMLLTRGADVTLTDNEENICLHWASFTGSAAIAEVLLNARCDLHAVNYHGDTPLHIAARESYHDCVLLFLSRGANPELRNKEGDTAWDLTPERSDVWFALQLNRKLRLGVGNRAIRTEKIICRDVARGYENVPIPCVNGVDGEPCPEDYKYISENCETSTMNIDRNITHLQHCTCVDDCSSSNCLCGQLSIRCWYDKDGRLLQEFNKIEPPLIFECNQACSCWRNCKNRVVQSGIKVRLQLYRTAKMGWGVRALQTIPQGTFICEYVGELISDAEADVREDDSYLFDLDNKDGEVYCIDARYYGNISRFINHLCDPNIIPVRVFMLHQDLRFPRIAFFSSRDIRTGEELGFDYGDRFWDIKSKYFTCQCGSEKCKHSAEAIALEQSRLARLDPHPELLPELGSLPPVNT
Method in brief: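 IC50 values came from a variable-slope four-parameter fit on triplicate wells, using % inhibition from the 800/700 nm infrared signal ratio (anti-H3K9me2 versus DRAQ5 DNA stain). Before fixation and immunostaining, MDA-MB-231 cells, 3,000 per well, were exposed to compound for 48 h at 37 °C.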

Structure (SMILES) | IC50
CNc1cc(Nc2cc(OCCCN3CCCC3)c(OC)cn2)cc(C)n1 [Compound 308, N^4-(5-methoxy-4-(3-(pyrrolidin-1-yl)propoxy)pyridin-2-yl)-N^2,6-dimethylpyridine-2,4-diamine] | 1 to 10 µM
CNc1cc(Nc2cc(OCCCN3CCCC3)c(OC)cn2)nc(C)c1F [Compound 309, 5-fluoro-N^2-(5-methoxy-4-(3-(pyrrolidin-1-yl)propoxy)pyridin-2-yl)-N^4,6-dimethylpyridine-2,4-diamine] | 0.1 to 1 µM
COc1cnc(Nc2nc(C)cc3[nH]ccc23)cc1OCCCN1CCCC1 [Compound 310] | > 10 µM
CNc1cc(C)nc(Nc2ccc(OC)c(OCCOC)c2)n1 [Compound 311, N^2-(4-methoxy-3-(2-methoxyethoxy)phenyl)-N^4,6-dimethylpyrimidine-2,4-diamine] | > 10 µM
CNc1cc(C)nc(Nc2ccc(OC)c(OCCCOC)c2)n1 [Compound 312, N^2-(4-methoxy-3-(3-methoxypropoxy)phenyl)-N^4,6-dimethylpyrimidine-2,4-diamine] | > 10 µM
CNc1cc(C)nc(Nc2ccc(C3CC3)c(OCCCN3CCCC3)c2)n1 [Compound 313, N^2-(4-cyclopropyl-3-(3-(pyrrolidin-1-yl)propoxy)phenyl)-N^4,6-dimethylpyrimidine-2,4-diamine] | 1 to 10 µM
CNc1ccnc(Nc2ccc(C3CC3)c(OCCCN3CCCC3)c2)n1 [Compound 314, N^2-(4-cyclopropyl-3-(3-(pyrrolidin-1-yl)propoxy)phenyl)-N^4-methylpyrimidine-2,4-diamine] | 1 to 10 µM
CNc1cc(C)nc(Nc2ccc(OC)c(OC[C@H]3C[C@@H](N(C)C)C3)c2)n1 [Compound 316] | 1 to 10 µM
CNc1cc(C)nc(Nc2ccc(OC)c(O[C@H]3C[C@@H](CN(C)C)C3)c2)n1 [Compound 318, N^2-(3-((1s,3s)-3-((dimethylamino)methyl)cyclobutoxy)-4-methoxyphenyl)-N^4,6-dimethylpyrimidine-2,4-diamine] | > 10 µM
CCc1nc(Nc2ccc(OC)c(OCCCN3CCCC3)c2)nc(NC)c1F [Compound 319, 6-ethyl-5-fluoro-N^2-(4-methoxy-3-(3-(pyrrolidin-1-yl)propoxy)phenyl)-N^4-methylpyrimidine-2,4-diamine] | 1 to 10 µM
CNc1cc(C2CC2)nc(Nc2ccc(OC)c(OCCCN3CCCC3)c2)n1 [Compound 320, 6-cyclopropyl-N^2-(4-methoxy-3-(3-(pyrrolidin-1-yl)propoxy)phenyl)-N^4-methylpyrimidine-2,4-diamine] | 0.1 to 1 µM
COc1cnc(Nc2cnc3ccccn23)cc1OCCCN1CCCC1 [Compound 321, N-(5-methoxy-4-(3-(pyrrolidin-1-yl)propoxy)pyridin-2-yl)imidazo[1,2-a]pyridin-3-amine] | > 10 µM
CNc1ccnc(Nc2ccc(OC)c(OCCCN3CC(C)C3)c2)n1 [Compound 423, N^2-(4-methoxy-3-(3-(3-methylazetidin-1-yl)propoxy)phenyl)-N^4-methylpyrimidine-2,4-diamine] | 1 to 10 µM
CNc1ccnc(Nc2ccc(OC)c(OCCCN(C)CC3CC3)c2)n1 [Compound 424, N^2-(3-(3-((cyclopropylmethyl)(methyl)amino)propoxy)-4-methoxyphenyl)-N^4-methylpyrimidine-2,4-diamine] | 1 to 10 µM
CNc1ccnc(Nc2ccc(OC)c(OCCCN3CC(OC)C3)c2)n1 [Compound 425, N^2-(4-methoxy-3-(3-(3-methoxyazetidin-1-yl)propoxy)phenyl)-N^4-methylpyrimidine-2,4-diamine] | 1 to 10 µM
CNc1ccnc(Nc2ccc(OC)c(OCc3cc(C4CC4)on3)c2)n1 [Compound 426, N^2-(3-((5-cyclopropylisoxazol-3-yl)methoxy)-4-methoxyphenyl)-N^4-methylpyrimidine-2,4-diamine] | > 10 µM
CNc1ccnc(N[C@@H]2CCC[C@H](OCCCN3CCCC3)C2)n1 [Compound 427] | > 10 µM
CNc1cc(CC(F)(F)F)nc(Nc2ccc(OC)c(OCCCN3CCCC3)c2)n1 [Compound 428, N^2-(4-methoxy-3-(3-(pyrrolidin-1-yl)propoxy)phenyl)-N^4-methyl-6-(2,2,2-trifluoroethyl)pyrimidine-2,4-diamine] | 1 to 10 µM

Structure (SMILES) | IC50
CNc1ccnc(Nc2ccc(OC)c(OCCCN3CCC3C)c2)n1 (centres unmarked) [Compound 429, N^2-(4-methoxy-3-(3-(2-methylazetidin-1-yl)propoxy)phenyl)-N^4-methylpyrimidine-2,4-diamine] | 1 to 10 µM
CCOc1ccc(Nc2nccc(NC)n2)cc1OCCCN1CCCC1 [Compound 430, N^2-(4-ethoxy-3-(3-(pyrrolidin-1-yl)propoxy)phenyl)-N^4-methylpyrimidine-2,4-diamine] | > 10 µM
CCOc1ccc(Nc2nccc(NC)n2)cc1OCC1CCN(C)C1 (centres unmarked) [Compound 431] | > 10 µM
CCOc1ccc(Nc2nc(C)cc(NC)n2)cc1OCCCN1CCCC1 [Compound 432, N^2-(4-ethoxy-3-(3-(pyrrolidin-1-yl)propoxy)phenyl)-N^4,6-dimethylpyrimidine-2,4-diamine] | > 10 µM
CNc1ccnc(Nc2ccc(OC)c(OCc3noc(C4CC4)n3)c2)n1 [Compound 433, N^2-(3-((5-cyclopropyl-1,2,4-oxadiazol-3-yl)methoxy)-4-methoxyphenyl)-N^4-methylpyrimidine-2,4-diamine] | > 10 µM
CNc1ccnc(Nc2ccc(OC)c(OCc3cn(C4CC4)nn3)c2)n1 [Compound 434, N^2-(3-((1-cyclopropyl-1H-1,2,3-triazol-4-yl)methoxy)-4-methoxyphenyl)-N^4-methylpyrimidine-2,4-diamine] | > 10 µM
CNc1cc(C)nc(Nc2ccc(OC)c(OCC3CCN(C)CC3)c2)n1 [Compound 435, N^2-(4-methoxy-3-((1-methylpiperidin-4-yl)methoxy)phenyl)-N^4,6-dimethylpyrimidine-2,4-diamine] | 1 to 10 µM
CNc1cc(C)nc(Nc2ccc(OC)c(OCC3CCN(CC4CC4)CC3)c2)n1 [Compound 436, N^2-(3-((1-(cyclopropylmethyl)piperidin-4-yl)methoxy)-4-methoxyphenyl)-N^4,6-dimethylpyrimidine-2,4-diamine] | > 10 µM
CNc1cc(C)nc(Nc2ccc(OC)c(OCC3CNC3)c2)n1 [Compound 437, N^2-(3-(azetidin-3-ylmethoxy)-4-methoxyphenyl)-N^4,6-dimethylpyrimidine-2,4-diamine] | 1 to 10 µM
CNc1ccnc(Nc2ccc(OC)c(OCCOC3CCCC3)c2)n1 [Compound 440, N^2-(3-(2-(cyclopentyloxy)ethoxy)-4-methoxyphenyl)-N^4-methylpyrimidine-2,4-diamine] | > 10 µM
CNc1cc(COC)nc(Nc2ccc(OC)c(OCCCN3CCCC3)c2)n1 [Compound 441, N^2-(4-methoxy-3-(3-(pyrrolidin-1-yl)propoxy)phenyl)-6-(methoxymethyl)-N^4-methylpyrimidine-2,4-diamine] | 1 to 10 µM
CNc1cc(C)nc(Nc2ccc(OC)c(OCC3CN(C)C3)c2)n1 [Compound 442, N^2-(4-methoxy-3-((1-methylazetidin-3-yl)methoxy)phenyl)-N^4,6-dimethylpyrimidine-2,4-diamine] | 0.1 to 1 µM
CNc1cc(C)nc(Nc2ccc(OC)c(OC3CCN(CC4CC4)CC3)c2)n1 [Compound 443] | > 10 µM
CCN1CC(COc2cc(Nc3nc(C)cc(NC)n3)ccc2OC)C1 [Compound 444] | 0.1 to 1 µM
CNc1cc(C)nc(Nc2ccc(OC)c(OCC3CN(CC4CC4)C3)c2)n1 [Compound 445, N^2-(3-((1-(cyclopropylmethyl)azetidin-3-yl)methoxy)-4-methoxyphenyl)-N^4,6-dimethylpyrimidine-2,4-diamine] | 1 to 10 µM
CNc1cc(C)nc(Nc2ccc(OC)c(OCC3CCN(C4CCC4)C3)c2)n1 (centres unmarked) [Compound 446, N^2-(3-((1-cyclobutylpyrrolidin-3-yl)methoxy)-4-methoxyphenyl)-N^4,6-dimethylpyrimidine-2,4-diamine] | 0.1 to 1 µM
COc1ccc(Nc2nc(C)cc(O)n2)cc1OCCCN1CCCC1 [Compound 447, 2-((4-methoxy-3-(3-(pyrrolidin-1-yl)propoxy)phenyl)amino)-6-methylpyrimidin-4-ol] | > 10 µM
